Reference: patent US10131663B2, “Chemical compounds” (AstraZeneca AB, priority 2016, dated 2018)
Converted amounts (≈) assume the structure as drawn. Like-named read-outs stand apart in the source and are kept apart here.

What was measured:
[1] = log D (shake flask, 1-octanol/aqueous buffer); type: physicochemical
Text: The lipophilicity of a drug is an important physical property which may influence many biological and metabolic properties of a compound, for example the absorption, distribution, metabolism, excretion and toxicity profiles of a compound. The distribution coefficient between 1-octanol and aqueous buffer, Log DO/W, at pH 7.4, is the most commonly used measurement of the lipophilicity of a compound. The current method for measurement of Log DO/W is based on the traditional shake flask technique, but with the modification of measuring compounds in mixtures of ten at a time using UPLC with quantitative mass spectrometry (MS) as a method to measure the relative octanol and aqueous concentrations. […] An additional QC sample Caffeine, with low Log D, are used and randomly placed in all runs. The method has been thoroughly validated against the previous shake flask methodologies.

[2] = Thermodynamic solubility (shake-flask); type: physicochemical; settings: aqueous phosphate buffer, 25 °C, pH 7.4, aqueous buffer, thermodynamic from solid, aqueous phosphate buffer pH 7.4, 24 hours
Protocol: The thermodynamic solubility of a research compound is measured under standard conditions. It is a shake-flask approach that uses 10 mM DMSO solutions which are supplied from the Compound Managements liquid store and is a high throughput method. The dried compounds are equilibrated in an aqueous phosphate buffer (pH 7.4) for 24 hours at 25° C., the portion with the dissolved compound is then separated from the remains. The solutions are analyzed and quantified using UPLC/MS/MS, QC-samples are incorporated in each assay-run to ensure the quality of the assay.

[3] = Human plasma protein binding (equilibrium dialysis); type: in vitro ADME; settings: dialysis 18 hours
Protocol: The automated equilibrium dialysis assay in human plasma uses the RED (Rapid Equilibrium Dialysis) Device and sample handling. The assay generally runs over two to three days including delivery of results. After dialysis for 18 hours, plasma and buffer samples are prepared for analysis by liquid chromatography and mass spectrometry. Samples are generally tested in singlicates and quantified by LC/MSMS by using a 7-point calibration curve in plasma. The compounds are pooled together in plasma pools up to 10 compounds. Three reference compounds are used in each run, Propranolol, Metoprolol and Warfarin. Warfarin is used as a control in each pool and Propranolol and Metoprolol are placed randomly in each run. An in-house Excel macro is used for preparation of files for the robot and the mass spectrometer and is also used for the calculations of fraction unbound (fu %) in plasma.

[4] = Human Caco-2 bidirectional permeability A to B and B to A; type: in vitro ADME; settings: for Papp at 2 h: Caco-2, 2 hours, pH 7.4; for efflux ratio at 2 h: Caco-2, pH 7.4
Protocol: An automated assay was used to determine the bidirectional permeability (efflux and uptake) of compounds in Caco-2 cells carried out over 2 hours at pH 7.4.
The efflux ratio (ER) can be determined using the following equation: ER=Papp(B-A)/Papp(A-B) Where Papp (B-A) indicates the apparent permeability coefficient in basolateral to apical direction, and Papp (A-B) indicates the apparent permeability coefficient in apical to basolateral direction. Human Caco-2 Passive Permeability A to B Papp

[5] = target: recombinant human Estrogen Receptor alpha ligand binding domain (ER alpha-LBD (GST)) (Homo sapiens (Human), UniProt P03372); experiment: ERα binding assay (LanthaScreen TR-FRET competition)
recombinant human Estrogen Receptor alpha ligand binding domain (ER alpha-LBD (GST)), sequence (P03372 307-554): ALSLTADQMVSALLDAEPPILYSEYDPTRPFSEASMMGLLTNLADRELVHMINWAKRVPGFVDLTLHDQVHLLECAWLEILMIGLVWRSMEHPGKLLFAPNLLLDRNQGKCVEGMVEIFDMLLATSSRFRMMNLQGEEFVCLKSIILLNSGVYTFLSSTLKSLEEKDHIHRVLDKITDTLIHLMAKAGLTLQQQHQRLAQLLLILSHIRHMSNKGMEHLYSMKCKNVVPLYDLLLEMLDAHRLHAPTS
Protocol: The ability of compounds to bind to isolated Estrogen Receptor Alpha Ligand binding domain (ER alpha-LBD (GST)) was assessed in competition assays using a LanthaScreen™ Time-Resolved Fluorescence Resonance Energy Transfer (TR-FRET) detection end-point. […] The assay principle is that ER alpha-LBD (GST) is added to a fluorescent ligand to form a receptor/fluorophore complex. A terbium-labelled anti-GST antibody (Product code PV3551) is used to indirectly label the receptor by binding to its GST tag, and competitive binding is detected by a test compound's ability to displace the fluorescent ligand, resulting in a loss of TR-FRET signal between the Tb-anti-GST antibody and the tracer. The assay was performed as follows with all reagent additions carried out using the Beckman Coulter BioRAPTR FRD microfluidic workstation: • 1. Acoustic dispense 120 nL of the test compound into a black low volume 384 well assay plates. • 2. Prepare 1×ER alpha-LBD/Tb-antiGST Ab in ES2 screening buffer and incubate for 15 minutes. • 3. Dispense 6 μL of the 1×[…]/Tb-anti-GST Ab reagent into each well of the assay plate followed by 6 μL of Fluorophore reagent into each well of the assay plate • 4. Cover the assay plate to protect the reagents from light and evaporation, and incubate at room temperature for 4 hours. • 5.
TR-FRET dose response data obtained with each compound was exported into a suitable software package (such as Origin or Genedata) to perform curve fitting analysis. Competitive ER alpha binding was expressed as an IC50 value.

[6] = target: Estrogen Receptor (ERα) in MCF-7 cells (Homo sapiens (Human), UniProt P03372); experiment: MCF-7 ER down-regulation assay (immuno-fluorescence); type: cell-based
Estrogen Receptor (ERα) in MCF-7 cells, sequence (P03372 whole entry): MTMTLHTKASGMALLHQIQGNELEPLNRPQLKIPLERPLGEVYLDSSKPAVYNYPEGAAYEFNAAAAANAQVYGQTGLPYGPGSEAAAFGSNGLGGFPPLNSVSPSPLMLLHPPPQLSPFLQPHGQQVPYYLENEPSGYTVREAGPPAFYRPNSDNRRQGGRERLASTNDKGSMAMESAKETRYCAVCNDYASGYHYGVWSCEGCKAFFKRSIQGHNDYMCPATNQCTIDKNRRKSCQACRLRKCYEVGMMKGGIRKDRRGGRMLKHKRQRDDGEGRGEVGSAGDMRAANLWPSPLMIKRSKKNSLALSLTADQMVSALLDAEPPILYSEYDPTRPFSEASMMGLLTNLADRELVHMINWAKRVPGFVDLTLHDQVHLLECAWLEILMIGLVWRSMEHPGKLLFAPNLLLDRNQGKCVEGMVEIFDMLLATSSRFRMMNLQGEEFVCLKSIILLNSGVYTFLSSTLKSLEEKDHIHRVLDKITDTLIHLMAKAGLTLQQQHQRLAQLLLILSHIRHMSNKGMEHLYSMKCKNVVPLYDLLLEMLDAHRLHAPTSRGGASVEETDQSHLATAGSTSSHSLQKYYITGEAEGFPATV
Protocol: The Echo uses acoustic technology to perform direct microplate-to-microplate transfers of DMSO compound solutions to assay plates. […] Cells were fixed at room temperature for 20 mins before being washed two times with 250 μL PBS/Proclin (PBS with a Biocide preservative) using a BioTek platewasher, 40 μL of PBS/Proclin was then added to all wells and the plates stored at 4° C. The fixing method described above was carried out on the Integrated Echo 2 workcell. Immunostaining was performed using an automated AutoElisa workcell. […] The plates were incubated overnight at 4° C. […] The mean total intensity was normalized for cell number giving the total intensity per cell. The data was exported into a suitable software package (such as Origin) to perform curve fitting analysis.

hERG potassium channel = hERG potassium channel (Homo sapiens (Human), UniProt Q12809); experiment: hERG binding assay (automated patch clamp, CHO cells); type: cell-based; settings: CHO cell line, Nanion Syncropatch 384PE
hERG potassium channel, sequence (Q12809 whole entry): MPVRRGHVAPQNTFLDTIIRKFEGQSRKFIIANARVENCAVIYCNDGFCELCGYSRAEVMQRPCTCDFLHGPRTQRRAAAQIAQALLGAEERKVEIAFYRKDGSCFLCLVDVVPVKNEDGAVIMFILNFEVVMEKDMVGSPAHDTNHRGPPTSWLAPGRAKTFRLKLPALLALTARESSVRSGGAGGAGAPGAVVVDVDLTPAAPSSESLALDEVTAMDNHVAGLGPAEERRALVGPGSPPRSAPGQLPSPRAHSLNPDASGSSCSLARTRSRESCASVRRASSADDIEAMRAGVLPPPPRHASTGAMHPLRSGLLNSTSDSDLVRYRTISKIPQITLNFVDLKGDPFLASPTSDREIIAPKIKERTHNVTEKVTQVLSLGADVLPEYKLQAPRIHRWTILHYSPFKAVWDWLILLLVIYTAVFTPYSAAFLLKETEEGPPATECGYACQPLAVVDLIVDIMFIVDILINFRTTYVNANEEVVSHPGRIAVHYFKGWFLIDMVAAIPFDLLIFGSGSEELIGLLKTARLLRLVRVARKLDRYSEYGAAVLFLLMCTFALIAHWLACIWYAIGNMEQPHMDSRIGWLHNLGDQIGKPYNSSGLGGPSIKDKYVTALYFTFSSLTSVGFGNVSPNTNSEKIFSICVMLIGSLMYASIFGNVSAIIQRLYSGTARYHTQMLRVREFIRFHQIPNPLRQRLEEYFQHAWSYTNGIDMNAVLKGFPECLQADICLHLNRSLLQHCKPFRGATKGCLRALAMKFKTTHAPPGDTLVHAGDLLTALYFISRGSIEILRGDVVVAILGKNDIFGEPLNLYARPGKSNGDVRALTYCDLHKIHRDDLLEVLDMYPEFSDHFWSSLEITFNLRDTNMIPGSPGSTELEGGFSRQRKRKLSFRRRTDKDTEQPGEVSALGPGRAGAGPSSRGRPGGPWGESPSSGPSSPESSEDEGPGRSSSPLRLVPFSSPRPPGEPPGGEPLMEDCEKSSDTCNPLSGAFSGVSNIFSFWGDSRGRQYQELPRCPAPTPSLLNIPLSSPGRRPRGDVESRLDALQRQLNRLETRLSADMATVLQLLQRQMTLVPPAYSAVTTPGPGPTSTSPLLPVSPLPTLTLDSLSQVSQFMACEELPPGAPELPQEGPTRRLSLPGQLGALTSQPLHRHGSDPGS
Protocol: Reagent preparations include: • 1.
Cell preparations: • 1. If using cell culture; cells to be incubated at 30° C. for approximately 4-6 days prior to being used. Day of assay lift cells using accutase and re-suspend in 20 ml cell buffer to a density of 0.8 to 1e6 cells/ml. • 2. If using assay ready cryovials; rapidly thaw two cryovials at 37° C. and slowly pipette into 23 ml external solution • 3.
All compounds were acoustically dispensed in quadruplicate using a Labcyte Echo. […] Fill 384 well medium resistance 4 hole chips with 40 μl external buffer and perfuse internal buffer to the underside of plate. • 2. Dispense 20 μl of cells into each well of the chip followed by 20 μl of seal enhancer. • 3. Remove 40 μl of reagent from each well to the wash station, leaving a residual volume of 40 μl • 4. Dispense 40 μl of reference buffer with a removal step of 40 μl after 3 min, repeat this step. • 5.
hERG-mediated currents were elicited using a voltage step protocol consisting of acontinuous holding voltage of −80 mV, with a 500 ms step to 60 mV followed by a 500 ms step to −40 mV every 15 seconds. hERG current magnitude was measured automatically from the leak-subtracted traces by the Nanion software by taking the peak of the hERG “tail” current at −40 mV every 15 seconds and taking the last three of these responses for each concentration to generate the concentration-effect curve.
Calculation of results is performed using APC package within Genedata. For the routine normalization of well data with Neutral and Inhibitor control well groups as reference, GeneData Assay Analyzer uses the following equation to normalize the signal values to the desired signal range:
[formula] • x is the measured raw signal value of a well • is the median of the measured signal values for the Central Reference (Neutral) wells on a plate • is the median of the measured signal values for the Scale Reference (Inhibitor) wells on a plate • CR is the desired median normalized value for the Central Reference (Neutral) • SR is the desired median normalized value for the Scale Reference (Inhibitor)

[7] = 1-octanol/aqueous buffer, pH 7.4, pH 7.4, 1-octanol/aqueous buffer
[8] = TR-FRET, displacement of Fluormone ES2
[9] = pH 7.4, 1-octanol/aqueous buffer

SMILES | logD [1, 7] | solubility at 24 h [2] [µM] | Human plasma protein binding (% free) [3] [% free] | Papp at 2 h [4] [×10⁻⁶ cm/s] | IC50 [5, 8] [nM] | IC50 [6] [nM] | IC50 (hERG potassium channel) [nM] | efflux ratio at 2 h [4] | IC50 [5] [nM] | logD [1, 9]
C[C@@H]1Cc2c(ccc3[nH]ncc23)[C@@H](c2ncc(NC3CN(CCCF)C3)cc2F)N1CC(F)(F)CO [Example 31, 2,2-Difluoro-3-((6S,8R)-6-(3-fluoro-5-((1-(3-fluoropropyl)azetidin-3-yl)amino)pyridin-2-yl)-8-methyl-3,6,8,9-tetrahydro-7H-pyrazolo[4,3-f]isoquinolin-7-yl)propan-1-ol] | 2 | > 942 | 44 | 0.9 | – | – | – | – | – | –
C[C@@H]1Cc2c(ccc3[nH]ncc23)[C@@H](c2ccc(NC3CN(CCCF)C3)c(F)c2)N1CC(F)(F)F [Example 41, N-(2-fluoro-4-((6R,8R)-8-methyl-7-(2,2,2-trifluoroethyl)-6,7,8,9-tetrahydro-3H-pyrazolo[4,3-f]isoquinolin-6-yl)phenyl)-1-(3-fluoropropyl)azetidin-3-amine] | 4.1 | 120 (≈ 59.2 µg/mL) | 2.2 | – | 2.4 | 0.17 | 6500 | – | – | –
COc1cc(NC2CN(CCCF)C2)ccc1[C@]1(C)c2ccc3[nH]ncc3c2C[C@@H](C)N1CC(F)F [Example 45, N-(4-((6S,8R)-7-(2,2-difluoroethyl)-6,8-dimethyl-6,7,8,9-tetrahydro-3H-pyrazolo[4,3-f]isoquinolin-6-yl)-3-methoxyphenyl)-1-(3-fluoropropyl)azetidin-3-amine] | 3.9 | 172 (≈ 86.3 µg/mL) | 6.2 | – | 1.6 | 0.3 | 4200 | – | – | –
C[C@@H]1Cc2c(ccc3[nH]ncc23)[C@@H](c2ccc(NC3CN(CCCF)C3)c(F)n2)N1CC(F)F [Example 47, 6-((6S,8R)-7-(2,2-difluoroethyl)-8-methyl-6,7,8,9-tetrahydro-3H-pyrazolo[4,3-f]isoquinolin-6-yl)-2-fluoro-N-(1-(3-fluoropropyl)azetidin-3-yl)pyridin-3-amine] | 2.6 | > 1000 | – | 18 | 1.2 | 0.41 | – | 1.1 | – | –
COc1cc(N(C)C2CN(CCCF)C2)ccc1[C@@H]1c2ccc3[nH]ncc3c2C[C@@H](C)N1CC1(F)CC1 [Example 52, N-(4-((6S,8R)-7-((1-fluorocyclopropyl)methyl)-8-methyl-6,7,8,9-tetrahydro-3H-pyrazolo[4,3-f]isoquinolin-6-yl)-3-methoxyphenyl)-1-(3-fluoropropyl)-N-methylazetidin-3-amine] | 3 | 864 (≈ 440 µg/mL) | 19 | – | 11 | 0.21 | 2000 | – | – | –
COc1cc(NC2CN(CCCF)C2)ccc1[C@@H]1c2ccc3[nH]ncc3c2C[C@@H](C)N1CC(F)(F)CO [Example 60, 2,2-difluoro-3-((6S,8R)-6-(4-((1-(3-fluoropropyl)azetidin-3-yl)amino)-2-methoxyphenyl)-8-methyl-3,6,8,9-tetrahydro-7H-pyrazolo[4,3-f]isoquinolin-7-yl)propan-1-ol] | – | 593 (≈ 307 µg/mL) | 23 | 0.7 | – | 0.19 | 11000 | 34 | 4.7 | 2.5
C[C@@H]1Cc2c(ccc3[nH]nc(F)c23)[C@@H](c2ccc(NC3CN(CCCF)C3)cn2)N1CC(F)(F)CO [Example 61, 2,2-difluoro-3-((6S,8R)-1-fluoro-6-(5-((1-(3-fluoropropyl)azetidin-3-yl)amino)pyridin-2-yl)-8-methyl-3,6,8,9-tetrahydro-7H-pyrazolo[4,3-f]isoquinolin-7-yl)propan-1-ol] | 2.7 | 848 (≈ 430 µg/mL) | 29 | – | 0.88 | 0.13 | > 40000 | – | – | –
C[C@@H]1Cc2c(ccc3[nH]nc(F)c23)[C@@H](c2ccc(NC3CN(CCCF)C3)c(F)n2)N1CC(F)(F)CO [Example 62, 2,2-difluoro-3-((6S,8R)-1-fluoro-6-(6-fluoro-5-((1-(3-fluoropropyl)azetidin-3-yl)amino)pyridin-2-yl)-8-methyl-3,6,8,9-tetrahydro-7H-pyrazolo[4,3-f]isoquinolin-7-yl)propan-1-ol] | 2.8 | 784 (≈ 411 µg/mL) | 19 | – | 1 | 0.13 | > 40000 | – | – | –
CC1(C)Cc2c(ccc3[nH]ncc23)[C@@H](c2ccc(NC3CN(CCCF)C3)cn2)N1CC(F)F [Example 73, (S)-6-(7-(2,2-difluoroethyl)-8,8-dimethyl-6,7,8,9-tetrahydro-3H-pyrazolo[4,3-f]isoquinolin-6-yl)-N-(1-(3-fluoropropyl)azetidin-3-yl)pyridin-3-amine] | – | 925 (≈ 437 µg/mL) | 22 | – | 3.4 | 0.77 | 12000 | – | – | 3
